# Reference: US6143311A, “Iodopropargyl derivatives and antimicrobial agents comprising them as an active ingredient” (Nagase & Company, Ltd., priority 1997, dated 2000)
# Columns and labels:
# Enterobacter aerogenes = assay: MIC against bacteria, Enterobacter aerogenes (nutrient broth, turbidity); type: cell-based; details: Klebsiella aerogenes; 30° C., 24 hours; read-out: Antimicrobial activity (MIC), Bacteria A: Enterobacter aerogenes
# Description: (§1) The minimum inhibitory concentration (hereinafter abbreviated as MIC) against four bacteria (Enterobacter aerogenes, Eschericia coli, Pseudomonas aeruginosa and Bacillus subtillis) and four fungi (Aspergillusniger, Penicillium funiculosum, Gliocladium virens and Trichoderma viride) was measured and used as an indicator of the antimicrobial activity.
# (§2) The MIC against bacteria was measured as follows. The test bacteria were cultivated by inoculating a nutrient broth with them and keeping the mixture at 37° C. for 6 hours. On the other hand, the test media were prepared by adding solutions (0.2 ml) of an iodopropargyl derivative in dimethylformamide (DMF) at varying concentrations to the nutrient broth (10 ml). The above bacterial culture (0.1 ml) was added to the test media and the mixtures were cultivated at 30° C. for 24 hours. Then, the presence or absence of microorganism growth was assessed by observing the turbidity of media, by which the MIC was determined.
# Eschericia coli = assay: MIC against bacteria, Eschericia coli (nutrient broth, turbidity); type: cell-based; details: 30° C., 24 hours; read-out: Antimicrobial activity (MIC), Bacteria B: Eschericia coli
# Description: as §1, §2
# Pseudomonas aeruginosa = assay: MIC against bacteria, Pseudomonas aeruginosa (nutrient broth, turbidity); type: cell-based; details: 30° C., 24 hours, read-out: Antimicrobial activity (MIC), Bacteria C: Pseudomonas aeruginosa
# Description: as §1, §2
# Bacillus subtillis = assay: MIC against bacteria, Bacillus subtillis (nutrient broth, turbidity); type: cell-based; details: 30° C., 24 hours, read-out: Antimicrobial activity (MIC), Bacteria D: Bacillus subtillis
# Description: as §1, §2
# Aspergillus niger = assay: MIC against fungi, Aspergillus niger (PDA medium); type: cell-based; details: 336 h, 28° C., 2 weeks, read-out: Antimicrobial activity (MIC), Fungi E: Aspergillus niger
# Description: as §1
# (§3) The MIC against fungi was measured as follows. The test fungal spores were suspended in sterilized water supplemented with a wetting agent. On the other hand, test media were prepared by adding solutions (0.3 ml) of an iodopropargyl derivative in dimethylformamide (DMF) at varying concentrations to a potato-dextrose-agar (PDA) medium (15 ml). The above spore suspensions (1 ml) were spread over the test media and the media were cultivated at 28° C. for 2 weeks. The presence or absence of fungal growth on the media was then observed to determine the MIC.
# Penicillium funiculosum = assay: MIC against fungi, Penicillium funiculosum (PDA medium); type: cell-based; details: Talaromyces funiculosus, 336 h; 28° C., 2 weeks; read-out: Antimicrobial activity (MIC), Fungi F: Penicillium funiculosum
# Description: as §1, §3
# Gliocladium virens = assay: MIC against fungi, Gliocladium virens (PDA medium); type: cell-based; details: Trichoderma virens, 336 h; 28° C., 2 weeks; read-out: Antimicrobial activity (MIC), Fungi G: Gliocladium virens
# Description: as §1, §3
# Trichoderma viride = assay: MIC against fungi, Trichoderma viride (PDA medium); type: cell-based; details: 336 h, 28° C., 2 weeks, read-out: Antimicrobial activity (MIC), Fungi H: Trichoderma viride
# Description: as §1, §3
# [1] = test system: four bacteria and four fungi; assay: Antimicrobial activity (MIC) against four bacteria and four fungi, overall; type: cell-based; details: from results of Table 1
# Description: as §1, §2, §3
# mold = details: background art; cited from earlier work
# human body = details: background art; cited from earlier work
Compound,MIC (Enterobacter aerogenes) [µg/mL],MIC (Eschericia coli) [µg/mL],MIC (Pseudomonas aeruginosa) [µg/mL],MIC (Bacillus subtillis) [µg/mL],MIC (Aspergillus niger) [µg/mL],MIC (Penicillium funiculosum) [µg/mL],MIC (Gliocladium virens) [µg/mL],MIC (Trichoderma viride) [µg/mL],antimicrobial activity compared with control 1-chloro-4-[[(3-iodo-2-propynyl)oxy]methoxy]benzene [1],antimicrobial activity compared with the other derivatives [1],antimicrobial activity against mold (mold),toxicity against the human body (human body)
"COc1ccccc1OC(C)OCC#CI (stereo not drawn) [Derivative III-g, 1-[1-[(3-Iodo-2-propynyl)oxy]ethoxy]-2-methoxybenzene]",> 1000,> 1000,> 1000,20 to 40,1 to 2,2 to 4,4 to 10,2 to 4,,,,
"CCOc1ccccc1OC(C)OCC#CI (stereo not drawn) [Derivative III-h, 1-Ethoxy-2-[1-[(3-iodo-2-propynyl)oxy]ethoxy]benzene]",> 1000,> 1000,> 1000,20 to 40,2 to 4,2 to 4,4 to 10,2 to 4,,,,
"N#Cc1ccc(OCOCC#CI)cc1 [Derivative III-i, 1-Cyano-4-[[(3-iodo-2-propynyl)oxy]methoxy]benzene]",> 1000,> 1000,> 1000,20 to 40,1 to 2,0.4 to 1,0.4 to 1,0.4 to 1,show an antimicrobial activity similar to that of 1-chloro-4-[[(3-iodo-2-propynyl)oxy]methoxy]benzene,superior to the others in the antimicrobial activity,,
"Clc1ccc(OCOCC#CI)cc1 [IF-1000, 1-Chloro-4-[[(3-iodo-2-propynyl)oxy]methoxy]benzene, reference compound]",> 1000,100 to 200,> 1000,10 to 20,0.4 to 1,0.4 to 1,1 to 2,1 to 2,,,particularly high antimicrobial activity against mold,low toxicity against the human body

# Further lines, with some results ahead:
MIC (Enterobacter aerogenes) [µg/mL],MIC (Eschericia coli) [µg/mL],MIC (Pseudomonas aeruginosa) [µg/mL],MIC (Bacillus subtillis) [µg/mL],MIC (Aspergillus niger) [µg/mL],MIC (Penicillium funiculosum) [µg/mL],MIC (Gliocladium virens) [µg/mL],MIC (Trichoderma viride) [µg/mL],Compound,antimicrobial activity compared with control 1-chloro-4-[[(3-iodo-2-propynyl)oxy]methoxy]benzene [1],antimicrobial activity compared with the other derivatives [1],antimicrobial activity against mold (mold),toxicity against the human body (human body)
> 1000,> 1000,> 1000,10 to 20,0.4 to 1,2 to 4,2 to 4,0.4 to 1,"COc1ccc(OCOCC#CI)cc1 [Derivative III-a, 1-[[(3-Iodo-2-propynyl)oxy]methoxy]-4-methoxybenzene]",show an antimicrobial activity similar to that of 1-chloro-4-[[(3-iodo-2-propynyl)oxy]methoxy]benzene,superior to the others in the antimicrobial activity,,
> 1000,> 1000,> 1000,100 to 200,4 to 10,> 20,> 20,4 to 10,"CCOc1ccc(OCOCC#CI)cc1 [Derivative III-b, 1-Ethoxy-4-[[(3-iodo-2-propynyl)oxy]methoxy]benzene]",,,,
> 1000,> 1000,> 1000,200 to 400,10 to 20,> 20,> 20,10 to 20,"COc1ccccc1OCOCC#CI [Derivative III-c, 1-[[(3-Iodo-2-propynyl)oxy]methoxy]-2-methoxybenzene]",,,,
> 1000,> 1000,> 1000,20 to 40,1 to 2,4 to 10,4 to 10,1 to 2,"CCOc1ccccc1OCOCC#CI [Derivative III-d, 1-Ethoxy-2-[[(3-iodo-2-propynyl)oxy]methoxy]benzene]",,,,
> 1000,> 1000,> 1000,20 to 40,0.4 to 1,2 to 4,4 to 10,1 to 2,"COc1ccc(OC(C)OCC#CI)cc1 (stereo not drawn) [Derivative III-e, 1-[1-[(3-Iodo-2-propynyl)oxy]ethoxy]-4-methoxybenzene]",,superior to the others in the antimicrobial activity,,
> 1000,400 to 1000,> 1000,10 to 20,1 to 2,4 to 10,4 to 10,1 to 2,"CCOc1ccc(OC(C)OCC#CI)cc1 (stereo not drawn) [Derivative III-f, 1-Ethoxy-4-[1-[(3-Iodo-2-propynyl)oxy]ethoxy]benzene]",,,,
